Measurements reported in US9695154B2, “Heteroaryl inhibitors of sumo activating enzyme” (MILLENNIUM PHARMACEUTICALS, INC., priority 2013, dated 2017).

Target: T1, recombinant human SAE enzyme (Homo sapiens, UniProt Q9UBT2)
T1 sequence (Q9UBT2 1-640): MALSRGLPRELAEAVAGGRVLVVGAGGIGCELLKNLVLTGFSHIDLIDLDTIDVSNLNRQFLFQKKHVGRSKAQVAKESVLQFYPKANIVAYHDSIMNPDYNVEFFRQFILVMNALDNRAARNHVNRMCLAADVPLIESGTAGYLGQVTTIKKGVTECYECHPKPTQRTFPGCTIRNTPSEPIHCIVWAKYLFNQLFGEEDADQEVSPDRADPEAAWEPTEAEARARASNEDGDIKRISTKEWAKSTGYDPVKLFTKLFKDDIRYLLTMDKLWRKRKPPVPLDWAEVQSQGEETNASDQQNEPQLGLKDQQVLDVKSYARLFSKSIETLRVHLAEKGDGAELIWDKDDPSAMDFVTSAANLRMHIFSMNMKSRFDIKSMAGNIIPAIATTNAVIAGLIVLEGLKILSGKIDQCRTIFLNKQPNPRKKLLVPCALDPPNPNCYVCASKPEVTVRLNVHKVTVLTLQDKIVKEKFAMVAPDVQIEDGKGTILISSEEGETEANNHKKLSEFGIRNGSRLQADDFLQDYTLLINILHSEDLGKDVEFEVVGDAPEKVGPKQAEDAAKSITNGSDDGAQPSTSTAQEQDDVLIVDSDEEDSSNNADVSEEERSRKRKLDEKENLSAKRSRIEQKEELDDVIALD
T1 sequence (Q9UBE0 1-346 partner): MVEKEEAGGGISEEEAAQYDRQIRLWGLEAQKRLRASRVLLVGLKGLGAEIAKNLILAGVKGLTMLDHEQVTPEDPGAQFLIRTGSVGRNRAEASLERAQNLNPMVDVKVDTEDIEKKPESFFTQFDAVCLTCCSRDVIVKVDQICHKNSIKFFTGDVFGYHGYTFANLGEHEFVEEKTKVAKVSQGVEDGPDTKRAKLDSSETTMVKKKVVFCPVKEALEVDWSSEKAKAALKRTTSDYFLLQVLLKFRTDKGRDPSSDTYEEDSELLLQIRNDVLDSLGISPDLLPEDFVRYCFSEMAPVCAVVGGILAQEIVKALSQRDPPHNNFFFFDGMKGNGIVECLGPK
Test: SAE HTRF Enzyme Assay
Assay type: biochemical
Details: for IC50: class symbols A-C; for inhibition at 0.111 µM: compound concentration 0.111 μM, read-out: Percent Inhibition
Method in brief: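 Measured as FRET after a 2 h antibody step: SAE (0.11 nM) thioester transfer of Sumo-Flag to Ubc9-GST, 0.5 μM ATP, 24° C for 105 min, quenched with 20 mM EDTA. Output is IC50 or percent inhibition at a single concentration.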

NS(=O)(=O)OC[C@H]1C[C@@H](Nc2ncncc2C(=O)c2ccn(Cc3cc4ccccc4s3)n2)C[C@@H]1O [Compound I-241, {(1R,2S,4R)-4-[(5-{[1-(1-benzothiophen-2-ylmethyl)-1H-pyrazol-3-yl]carbonyl}pyrimidin-4-yl)amino]-2-hydroxycyclopentyl}methyl sulfamate]
IC50: < 10 nM | inhibition at 0.111 µM: 98%

NS(=O)(=O)OC[C@H]1C[C@@H](Nc2ccncc2C(=O)c2ccn(Cc3cccc(Cl)c3)n2)[C@@H](F)[C@@H]1O [Compound I-242, {(1R,2R,3R,4R)-4-[(3-{[1-(3-chlorobenzyl)-1H-pyrazol-3-yl]carbonyl}pyridin-4-yl)amino]-3-fluoro-2-hydroxycyclopentyl}methyl sulfamate]
IC50: < 10 nM | inhibition at 0.111 µM: 96%

NS(=O)(=O)OC[C@H]1C[C@@H](Nc2ncncc2C(=O)c2ccn(CCc3cccc(Br)c3)c2)[C@@H](F)[C@@H]1O [Compound I-243, [(1R,2R,3R,4R)-4-{[5-({1-[2-(3-bromophenyl)ethyl]-1H-pyrrol-3-yl}carbonyl)pyrimidin-4-yl]amino}-3-fluoro-2-hydroxycyclopentyl]methyl sulfamate]
IC50: < 10 nM | inhibition at 0.111 µM: 99%

NS(=O)(=O)OC[C@H]1C[C@@H](Nc2ncncc2C(=O)c2cc(Cl)n(Cc3cccc(Br)c3)c2)[C@@H](F)[C@@H]1O [Compound I-244, {(1R,2R,3R,4R)-4-[(5-{[1-(3-Bromobenzyl)-5-chloro-1H-pyrrol-3-yl]carbonyl}pyrimidin-4-yl)amino]-3-fluoro-2-hydroxycyclopentyl}methyl sulfamate]
IC50: < 10 nM | inhibition at 0.111 µM: 98%

NS(=O)(=O)OC[C@H]1C[C@@H](Nc2ncncc2C(=O)c2ccn(Cc3ccc(F)c(I)c3)n2)C[C@@H]1O [Compound I-245, {(1R,2S,4R)-4-[(5-{[1-(4-fluoro-3-iodobenzyl)-1H-pyrazol-3-yl]carbonyl}pyrimidin-4-yl)amino]-2-hydroxycyclopentyl}methyl sulfamate]
IC50: < 10 nM | inhibition at 0.111 µM: 100%

NS(=O)(=O)OC[C@H]1C[C@@H](Nc2ccncc2C(=O)c2ccn(Cc3cccc(OC(F)F)c3)n2)C[C@@H]1O [Compound I-246, [(1R,2S,4R)-4-{[3-({1-[3-(difluoromethoxy)benzyl]-1H-pyrazol-3-yl}carbonyl)pyridin-4-yl]amino}-2-hydroxycyclopentyl]methyl sulfamate]
IC50: < 10 nM | inhibition at 0.111 µM: 97%

NS(=O)(=O)OC[C@H]1C[C@@H](Nc2ncncc2C(=O)c2ccn(Cc3cccnc3)n2)[C@H](O)[C@@H]1O [Compound I-247, {(1R,2R,3S,4R)-2,3-dihydroxy-4-[(5-{[1-(pyridin-3-ylmethyl)-1H-pyrazol-3-yl]carbonyl}pyrimidin-4-yl)amino]cyclopentyl}methyl sulfamate]
IC50: < 10 nM | inhibition at 0.111 µM: 90%

Cc1cccc(Cn2nc(C(=O)c3cncnc3N[C@@H]3C[C@H](COS(N)(=O)=O)[C@@H](O)C3)cc2C)c1 [Compound I-248, {(1R,2S,4R)-2-hydroxy-4-[(5-{[5-methyl-1-(3-methylbenzyl)-1H-pyrazol-3-yl]carbonyl}pyrimidin-4-yl)amino]cyclopentyl}methyl sulfamate]
IC50: < 10 nM | inhibition at 0.111 µM: 99%

N#Cc1ccccc1Cn1ccc(C(=O)c2cncnc2N[C@@H]2C[C@H](COS(N)(=O)=O)[C@@H](O)[C@H]2O)n1 [Compound I-249, {(1R,2R,3S,4R)-4-[(5-{[1-(2-cyanobenzyl)-1H-pyrazol-3-yl]carbonyl}pyrimidin-4-yl)amino]-2,3-dihydroxycyclopentyl}methyl sulfamate]
IC50: < 10 nM | inhibition at 0.111 µM: 97%

NS(=O)(=O)OC[C@H]1C[C@@H](Nc2ncncc2C(=O)c2ccn(Cc3cccc(N4CCOCC4)c3)n2)C[C@@H]1O [Compound I-251, [(1R,2S,4R)-2-hydroxy-4-{[5-({1-[3-(morpholin-4-yl)benzyl]-1H-pyrazol-3-yl}carbonyl)pyrimidin-4-yl]amino}cyclopentyl]methyl sulfamate]
IC50: 10 to 100 nM | inhibition at 0.111 µM: 71%

NS(=O)(=O)OC[C@H]1C[C@@H](Nc2ncncc2C(=O)c2ccn(CC3=CCCCC3)n2)C[C@@H]1O [Compound I-252, {(1R,2S,4R)-4-[(5-{[1-(cyclohex-1-en-1-ylmethyl)-1H-pyrazol-3-yl]carbonyl}pyrimidin-4-yl)amino]-2-hydroxycyclopentyl}methyl sulfamate]
IC50: < 10 nM | inhibition at 0.111 µM: 97%

N#Cc1ccccc1Cn1ccc(C(=O)c2cncnc2N[C@@H]2C[C@H](COS(N)(=O)=O)[C@@H](O)C2)n1 [Compound I-253, {(1R,2S,4R)-4-[(5-{[1-(2-cyanobenzyl)-1H-pyrazol-3-yl]carbonyl)pyrimidin-4-yl)amino]-2-hydroxycyclopentyl}methyl sulfamate]
IC50: 10 to 100 nM | inhibition at 0.111 µM: 91%

NS(=O)(=O)OC[C@H]1C[C@@H](Nc2ncncc2C(=O)c2cc(Cl)n(Cc3ccc(Cl)o3)c2)[C@@H](F)[C@@H]1O [Compound I-254, [(1R,2R,3R,4R)-4-{[5-({5-chloro-1-[(5-chloro-2-furyl)methyl]-1H-pyrrol-3-yl}carbonyl)pyrimidin-4-yl]amino}-3-fluoro-2-hydroxycyclopentyl]methyl sulfamate]
IC50: < 10 nM | inhibition at 0.111 µM: 99%

NS(=O)(=O)OC[C@H]1C[C@@H](Nc2ncncc2C(=O)c2ccn(S(=O)(=O)c3cccc(Br)c3)c2)C[C@@H]1O [Compound I-255, [(1R,2S,4R)-4-{[5-({1-[(3-bromophenyl)sulfonyl]-1H-pyrrol-3-yl}carbonyl)pyrimidin-4-yl]amino}-2-hydroxycyclopentyl]methyl sulfamate]
IC50: < 10 nM | inhibition at 0.111 µM: 97%

NS(=O)(=O)OC[C@H]1C[C@@H](Nc2ncncc2C(=O)c2ccn(Cc3cccc(OC(F)F)c3)n2)[C@H](O)[C@@H]1O [Compound I-256, [(1R,2R,3S,4R)-4-{[5-({1-[3-(difluoromethoxy)benzyl]-1H-pyrazol-3-yl}carbonyl)pyrimidin-4-yl]amino}-2,3-dihydroxycyclopentyl]methyl sulfamate]
IC50: < 10 nM | inhibition at 0.111 µM: 99%

NS(=O)(=O)OC[C@H]1C[C@@H](Nc2ncncc2C(=O)c2ccn(Cc3ccc(C(F)(F)F)s3)c2)[C@@H](F)[C@@H]1O [Compound I-257, [(1R,2R,3R,4R)-3-fluoro-2-hydroxy-4-({5-[(1-{[5-(trifluoromethyl)-2-thienyl]methyl}-1H-pyrrol-3-yl)carbonyl]pyrimidin-4-yl}amino)cyclopentyl]methyl sulfamate]
IC50: < 10 nM | inhibition at 0.111 µM: 98%

NS(=O)(=O)OC[C@H]1C[C@@H](Nc2ncncc2C(=O)c2ccn(Cc3cc(F)cc(C(F)(F)F)c3)n2)[C@H](O)[C@@H]1O [Compound I-258, [(1R,2R,3S,4R)-4-{[5-({1-[3-fluoro-5-(trifluoromethyl)benzyl]-1H-pyrazol-3-yl}carbonyl)pyrimidin-4-yl]amino}-2,3-dihydroxycyclopentyl]methyl sulfamate]
IC50: < 10 nM | inhibition at 0.111 µM: 97%

NS(=O)(=O)OC[C@H]1C[C@@H](Nc2ncncc2C(=O)c2ccn(Cc3ccc(SC(F)(F)F)cc3)n2)[C@H](O)[C@@H]1O [Compound I-259, [(1R,2R,3S,4R)-2,3-dihydroxy-4-({5-[(1-{4-[(trifluoromethyl)sulfanyl]benzyl}-1H-pyrazol-3-yl)carbonyl]pyrimidin-4-yl}amino)cyclopentyl]methyl sulfamate]
IC50: < 10 nM | inhibition at 0.111 µM: 95%

NS(=O)(=O)OC[C@H]1C[C@@H](Nc2ncncc2C(=O)c2ccn(Cc3cc(F)cc(F)c3)n2)C[C@@H]1O [Compound I-260, {(1R,2S,4R)-4-[(5-{[1-(3,5-difluorobenzyl)-1H-pyrazol-3-yl]carbonyl}pyrimidin-4-yl)amino]-2-hydroxycyclopentyl}methyl sulfamate]
IC50: < 10 nM | inhibition at 0.111 µM: 91%

NS(=O)(=O)OC[C@H]1C[C@@H](Nc2ncncc2C(=O)c2ccn(Cc3cc(C(F)(F)F)ccc3C(F)(F)F)n2)C[C@@H]1O [Compound I-261, [(1R,2S,4R)-4-{(5-({1-[2,5-bis(trifluoromethyl)benzyl]-1H-pyrazol-3-yl}carbonyl)pyrimidin-4-yl]amino}-2-hydroxycyclopentyl]methyl sulfamate]
IC50: < 10 nM | inhibition at 0.111 µM: 97%
